{
  "source": "patent US11564958B2",
  "about": "“Compositions and methods of treatment of Ehlers-Danlos syndromes” (RESOLYS BIO, INC., priority 2017, dated 2023)",
  "origin": "cited, not measured here",
  "test_system": "rheumatoid arthritis",
  "details": "reported in U.S. Pat. No. 4,704,273",
  "data": [
    {"smiles": "NCCc1c[nH]cn1", "note": "[histamine, 4-(2-aminoethyl)-imidazole]", "values": [
      {"measurement": "usefulness in alleviating symptoms of rheumatoid arthritis", "result": "not be useful"}
    ]}
  ]
}
